{"source": "patent US9951025B2", "about": "“Halogenopyrazoles as inhibitors of thrombin” (VERSEON CORPORATION, priority 2013, dated 2018)", "data": [{"biological_target": "T1, Human thrombin (Homo sapiens, UniProt P00734)", "T1 construct": "purchased Haematologic Technologies Inc", "experiment": "thrombin protease inhibition assay, chromogenic substrate S-2238", "format": "biochemical", "conditions": "3 nM human thrombin, 125 μM S-2238, 10 min pre-incubation, RT", "experimental": "Compounds described herein can be assayed, by a variety of methods known in the art and described herein, for inhibition of biological activity, e.g., protease activity, of a variety of proteins, e.g., thrombin.\nThe thrombin activity reported herein (e.g., Table A) was obtained as follows. […] Thrombin was assayed in buffer containing 0.05 M Tris (pH 7.4), 0.015 M NaCl and 0.01% PEG-8000. The final concentration of enzyme used was 3 nM thrombin. […] All assays were performed in 96-well microtiter plates at room temperature (RT). […] Inhibitor IC50 values were determined by adding test compound as ten point, three-fold serial dilutions in buffer solution, as known in the art. The plate was read at 10 minutes after substrate addition. The IC50 was calculated by plotting the percent (%) inhibition against compound concentration and fitting the data to a constrained four parameter sigmoidal curve, as known in the art.", "units": {"IC50": "µM"}, "values": [{"molecule": "CN(C)c1cccc2c(S(=O)(=O)N3CCC(c4nn(C(=O)C(C)(C)CO)c(NCc5ccc(Cl)s5)c4F)CC3)cccc12", "note": "[Compound 1, 1-(5-[(5-chlorothiophen-2-yl)methyl]amino-3-(1-[5-(dimethylamino)naphthalen-1-yl]sulfonylpiperidin-4-yl)-4-fluoro-1H-pyrazol-1-yl)-3-hydroxy-2,2-dimethylpropan-1-one]", "IC50": "< 0.1"}, {"molecule": "CC(C)(C)C(=O)n1nc(-c2ccc3c(c2)CCCC3O)c(F)c1NCc1ccc(Cl)s1", "note": "(stereo not drawn) [Compound 2, 1-(5-[(5-chlorothiophen-2-yl)methyl]amino-4-fluoro-3-(5-hydroxy-5,6,7,8-tetrahydronaphthalen-2-yl)-1H-pyrazol-1-yl)-2,2-dimethylpropan-1-one]", "IC50": "> 1"}, {"molecule": "COCC(C)(C)C(=O)n1nc(C2CCOCC2)c(F)c1NCc1ccc(Cl)s1", "note": "[Compound 5, 1-(5-[(5-chlorothiophen-2-yl)methyl]amino-4-fluoro-3-(oxan-4-yl)-1H-pyrazol-1-yl)-3-methoxy-2,2-dimethylpropan-1-one]", "IC50": "< 0.1"}, {"molecule": "COC(C)(C)C(=O)n1nc(C2CCNCC2)c(F)c1NCc1ccc(Cl)s1", "note": "[Compound 7, 1-(5-[(5-chlorothiophen-2-yl)methyl]amino-4-fluoro-3-(piperidin-4-yl)-1H-pyrazol-1-yl)-2-methoxy-2-methylpropan-1-one]", "IC50": "< 0.1"}, {"molecule": "COCC(C)(C)C(=O)n1nc(C2CCNCC2)c(F)c1NCc1ccc(Cl)s1", "note": "[Compound 9, 1-(5-[(5-chlorothiophen-2-yl)methyl]amino-4-fluoro-3-(piperidin-4-yl)-1H-pyrazol-1-yl)-3-methoxy-2,2-dimethylpropan-1-one]", "IC50": "< 0.1"}, {"molecule": "CC(C)(C)C(=O)n1nc(-c2ccccc2)c(F)c1NCc1ccc(Cl)s1", "note": "[Compound 10, 1-(5-[(5-chlorothiophen-2-yl)methyl]amino-4-fluoro-3-phenyl-1H-pyrazol-1-yl)-2,2-dimethylpropan-1-one]", "IC50": "< 0.1"}, {"molecule": "CC(C)(O)C(=O)n1nc(-c2ccccc2)c(F)c1NCc1ccc(Cl)s1", "note": "[Compound 11, 1-(5-[(5-chlorothiophen-2-yl)methyl]amino-4-fluoro-3-phenyl-1H-pyrazol-1-yl)-2-hydroxy-2-methylpropan-1-one]", "IC50": "< 0.1"}, {"molecule": "COC(C)(C)C(=O)n1nc(-c2ccccc2)c(F)c1NCc1ccc(Cl)s1", "note": "[Compound 12, 1-(5-[(5-chlorothiophen-2-yl)methyl]amino-4-fluoro-3-phenyl-1H-pyrazol-1-yl)-2-methoxy-2-methylpropan-1-one]", "IC50": "< 0.1"}, {"molecule": "COCCOCC(C)(C)C(=O)n1nc(-c2ccccc2)c(F)c1NCc1ccc(Cl)s1", "note": "[Compound 13, 1-(5-[(5-chlorothiophen-2-yl)methyl]amino-4-fluoro-3-phenyl-1H-pyrazol-1-yl)-3-(2-methoxyethoxy)-2,2-dimethylpropan-1-one]", "IC50": "< 0.1"}, {"molecule": "CC(C)(CO)C(=O)n1nc(-c2ccccc2)c(F)c1NCc1ccc(Cl)s1", "note": "[Compound 14, 1-(5-[(5-chlorothiophen-2-yl)methyl]amino-4-fluoro-3-phenyl-1H-pyrazol-1-yl)-3-hydroxy-2,2-dimethylpropan-1-one]", "IC50": "< 0.1"}, {"molecule": "COCC(C)(C)C(=O)n1nc(-c2ccccc2)c(F)c1NCc1ccc(Cl)s1", "note": "[Compound 15, 1-(5-[(5-chlorothiophen-2-yl)methyl]amino-4-fluoro-3-phenyl-1H-pyrazol-1-yl)-3-methoxy-2,2-dimethylpropan-1-one]", "IC50": "< 0.1"}, {"molecule": "CC(C)(C)C(=O)n1nc(-c2ccc(N3CCCC3=O)cc2)c(F)c1NCc1ccc(Cl)s1", "note": "[Compound 16, 1-[4-(5-[(5-chlorothiophen-2-yl)methyl]amino-1-(2,2-dimethylpropanoyl)-4-fluoro-1H-pyrazol-3-yl)phenyl]pyrrolidin-2-one]", "IC50": "< 0.1"}, {"molecule": "O=C1CCCN1c1ccc(-c2nn(C(=O)c3cccc4c3OCCO4)c(NCc3ccc(Cl)s3)c2F)cc1", "note": "[Compound 17, 1-[4-(5-[(5-chlorothiophen-2-yl)methyl]amino-1-(2,3-dihydro-1,4-benzodioxine-5-carbonyl)-4-fluoro-1H-pyrazol-3-yl)phenyl]pyrrolidin-2-one]", "IC50": "< 0.1"}, {"molecule": "COc1ccccc1C(=O)n1nc(-c2ccc(C(O)C(F)(F)F)cc2)c(F)c1NCc1ccc(Cl)s1", "note": "(stereo not drawn) [Compound 18, 1-[4-(5-[(5-chlorothiophen-2-yl)methyl]amino-4-fluoro-1-(2-methoxybenzoyl)-1H-pyrazol-3-yl)phenyl]-2,2,2-trifluoroethan-1-ol]", "IC50": "> 1"}, {"molecule": "COc1ccccc1C(=O)n1nc(-c2ccc(N3CCCC3=O)cc2)c(F)c1NCc1ccc(Cl)s1", "note": "[Compound 19, 1-[4-(5-[(5-chlorothiophen-2-yl)methyl]amino-4-fluoro-1-(2-methoxybenzoyl)-1H-pyrazol-3-yl)phenyl]pyrrolidin-2-one]", "IC50": "< 0.1"}, {"molecule": "O=C1CCCN1c1ccc(-c2nn(C(=O)c3ccoc3)c(NCc3ccc(Cl)s3)c2F)cc1", "note": "[Compound 20, 1-[4-(5-[(5-chlorothiophen-2-yl)methyl]amino-4-fluoro-1-(furan-3-carbonyl)-1H-pyrazol-3-yl)phenyl]pyrrolidin-2-one]", "IC50": "> 1"}, {"molecule": "O=C(N1CCC(c2n[nH]c(NCc3ccc(Cl)s3)c2F)CC1)C1(O)CC1", "note": "[Compound 21, 1-[4-(5-[(5-chlorothiophen-2-yl)methyl]amino-4-fluoro-1H-pyrazol-3-yl)piperidine-1-carbonyl]cyclopropan-1-ol]", "IC50": "0.1 to 1"}, {"molecule": "CC(C)(C)C(=O)n1nc(-c2ccccn2)c(F)c1NCc1ccccc1", "note": "[Compound 22, 1-[5-(benzylamino)-4-fluoro-3-(pyridin-2-yl)-1H-pyrazol-1-yl]-2,2-dimethylpropan-1-one]", "IC50": "< 0.1"}, {"molecule": "CC(C)(C)C(=O)n1nc(-c2ccccc2)c(F)c1NCc1ccccc1", "note": "[Compound 23, 1-[5-(benzylamino)-4-fluoro-3-phenyl-1H-pyrazol-1-yl]-2,2-dimethylpropan-1-one]", "IC50": "< 0.1"}, {"molecule": "O=C(c1ccccc1)n1nc(C2CCOCC2)c(F)c1NCc1ccc(Cl)s1", "note": "[Compound 24, 1-benzoyl-N-[(5-chlorothiophen-2-yl)methyl]-4-fluoro-3-(oxan-4-yl)-1H-pyrazol-5-amine]", "IC50": "< 0.1"}, {"molecule": "O=C(c1ccccc1)n1nc(NCc2ccc(Cl)s2)c(F)c1C1CCOCC1", "note": "[Compound 25, 1-benzoyl-N-[(5-chlorothiophen-2-yl)methyl]-4-fluoro-5-(oxan-4-yl)-1H-pyrazol-3-amine]", "IC50": "> 1"}, {"molecule": "CN(C)c1cccc2c(S(=O)(=O)Oc3ccccc3C(=O)n3nc(-c4ccccc4)c(F)c3NCc3ccc(Cl)s3)cccc12", "note": "[Compound 26, 2-(5-[(5-chlorothiophen-2-yl)methyl]amino-4-fluoro-3-phenyl-1H-pyrazole-1-carbonyl)phenyl 5-(dimethylamino)naphthalene-1-sulfonate]", "IC50": "0.1 to 1"}, {"molecule": "CN(C)c1cccc2c(S(=O)(=O)Oc3ccc(C(=O)n4nc(-c5ccccc5)c(F)c4NCc4ccc(Cl)s4)cc3)cccc12", "note": "[Compound 27, 4-(5-[(5-chlorothiophen-2-yl)methyl]amino-4-fluoro-3-phenyl-1H-pyrazole-1-carbonyl)phenyl 5-(dimethylamino)naphthalene-1-sulfonate]", "IC50": "> 1"}, {"molecule": "CC(C)(C)C(=O)n1nc(-c2ccc(N3CCOCC3=O)cc2)c(F)c1NCc1ccc(Cl)s1", "note": "[Compound 28, 4-[4-(5-[(5-chlorothiophen-2-yl)methyl]amino-1-(2,2-dimethylpropanoyl)-4-fluoro-1H-pyrazol-3-yl)phenyl]morpholin-3-one]", "IC50": "< 0.1"}]}]}
